“And” between values parts separate entries of the source, which are not always exact repeats. Equal entries are not always repeated.
Legend:
[1] = Accelerated stability test for bulk drug; assay type: physicochemical; details: for Appearance / Content / Related substance: bulk drug, 40° C.±2° C., RH 75%±5%
Method: (§1) An accelerated stability test for bulk drug was carried out directly from the crystal powder. An accelerated stability test for formulation was carried out on tablets.

[2] = Pharmacokinetic evaluation of 2-BHA of form A in rats by intragastric administration; assay type: in vivo, SD rats; details: 100 mg/kg intragastric, individual rats 1♂-6♀;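 also: plasma concentration in ng/mL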
Method: SD rats, half male and half female, fasted overnight, 6 rats/group, were given 2-tert-butyl-4-methoxyphenol suspended in Tween 80 (2-BHA of form A prepared by Example 4) by intragastric administration, the dose being 100 mg/kg body weight. […]

[3] = Plasma concentration after intragastric administration in mice; assay type: in vivo
[4] = Accelerated stability test for formulation (tablets); assay type: physicochemical; details: conclusion from Tables 3 and 4
Method: as §1
Preparation process of formulation: form A of 2-tert-butyl-4-methoxyphenol (2-BHA) (form A of 2-BHA prepared in Example 4), microcrystalline cellulose, lactose and other auxiliary materials respectively were screened through 100 mesh, respectively for use. The prescription amount of form A of 2-tert-butyl-4-methoxyphenol, microcrystalline cellulose, lactose and other auxiliary materials were fully mixed according to the equal volume addition method. The above mixture was added to an aqueous solution of 2-3% polyvinylpyrrolidone under stirring, to obtain a soft material, which was screened through a 20-mesh sieve. The tablet weight regulator was adjusted to make the tablet weight being 250±10 mg, the hardness being 60-80 N, and then the tablet was compressed. After screening for dissolution, homogeneity and reproducibility and the like, the prescription was determined and 3 batches of samples were prepared.

[5] = test system: lung cancer in K-ras^LA2 model mice; details: Cell Research 2013, 23:898-914; cited from earlier work
[6] = test system: differentiation of monocytes into M2 macrophages; details: by inhibiting production of ROS; Cell Research 2013, 23:898-914; cited from earlier work
[7] = test system: lung cancer and breast cancer; details: mouse models with lung cancer and breast cancer; CN 201610037849.5; cited from earlier work
[8] = Drug metabolism experiments (in vivo half-life)
Method: (§2) At the same time, it was found through drug metabolism experiments that the in vivo half-life of BHA was very short, only 30-60 minutes. […] Therefore, combining with the research results of literature on the metabolites of 2-tert-butyl-4-methoxyphenol (with DNA damaging effects, Food and Chemical Toxicology 1999, 37: 1027-1038), it can be inferred that 2-tert-butyl-4-methoxyphenol itself has an anti-tumor effect, and the interaction of its metabolite tert-butylhydroquinone (TBHQ) with DNA may be the cause of its side effects. BHA has the potential to be developed into a drug.

[9] = Comparative study of antioxidant activity, 2-BHA vs 3-BHA; details: ratio to 3-BHA
Text: (§3) However, the existing commercial BHA products are all mixtures of 2-tert-butyl-4-methoxyphenol (2-BHA) and 3-tert-butyl-4-methoxyphenol (3-BHA), with a content ratio of approximately 9:1-50:1. The inventors comparatively studied the antioxidant activities and macrophage polarization regulation activities of 2-tert-butyl-4-methoxyphenol and 3-tert-butyl-4-methoxyphenol. […] Therefore, the development of 2-tert-butyl-4-methoxyphenol as a medicine still needs to improve the purity.

[10] = test system: mice; assay: Toxicology experiments in mice; assay type: in vivo
Method: as §2

[11] = test system: macrophage polarization; assay: Comparative study of macrophage polarization regulation activity, 2-BHA vs 3-BHA; assay type: cell-based; details: ratio to 3-BHA
Text: as §3

[12] = test system: M2 polarization of macrophages; details: CN 201610037849.5; cited from earlier work
[13] = early studies, literature; cited from earlier work
[14] = 600 mg/kg administration in mice
[15] = 1100 mg/kg administration in mice

COc1ccc(O)c(C(C)(C)C)c1 [2-BHA of form A, 2-tert-butyl-4-methoxyphenol]
Appearance ([1]; 0 month, listed as 20160808): white | Content ([1]; 0 month, listed as 20160808): 99.5% | Related substance ([1]; 0 month, listed as 20160808): 0.34% | Appearance ([1]; 0 month, listed as 20160904): white | Content ([1]; 0 month, listed as 20160904): 99.8% | Related substance ([1]; 0 month, listed as 20160904): 0.14% | Appearance ([1]; 0 month, listed as 20160908): white | Content ([1]; 0 month, listed as 20160908): 99.6% | Related substance ([1]; 0 month, listed as 20160908): 0.34% | Appearance ([1]; 1 month, listed as 20160808): white | Content ([1]; 1 month, listed as 20160808): 99.7% | Related substance ([1]; 1 month, listed as 20160808): 0.22% | Appearance ([1]; 1 month, listed as 20160904): white | Content ([1]; 1 month, listed as 20160904): 99.7% | Related substance ([1]; 1 month, listed as 20160904): 0.21% | Appearance ([1]; 1 month, listed as 20160908): white | Content ([1]; 1 month, listed as 20160908): 99.6% | Related substance ([1]; 1 month, listed as 20160908): 0.31% | Appearance ([1]; 2 month, listed as 20160808): white | Content ([1]; 2 month, listed as 20160808): 99.4% | Related substance ([1]; 2 month, listed as 20160808): 0.19% | Appearance ([1]; 2 month, listed as 20160904): white | Content ([1]; 2 month, listed as 20160904): 99.3% | Related substance ([1]; 2 month, listed as 20160904): 0.39% | Appearance ([1]; 2 month, listed as 20160908): white | Content ([1]; 2 month, listed as 20160908): 99.5% | Related substance ([1]; 2 month, listed as 20160908): 0.29% | Appearance ([1]; 3 month, listed as 20160808): white | Content ([1]; 3 month, listed as 20160808): 99.5% | Related substance ([1]; 3 month, listed as 20160808): 0.35% | Appearance ([1]; 3 month, listed as 20160904): white | Content ([1]; 3 month, listed as 20160904): 99.3% | Related substance ([1]; 3 month, listed as 20160904): 0.35% | Appearance ([1]; 3 month, listed as 20160908): white | Content ([1]; 3 month, listed as 20160908): 99.6% | Related substance ([1]; 3 month, listed as 20160908): 0.25% | physical and chemical stability compared with commercially available BHA ([1]; fluidity, agglomeration, oxidation and colour change in the environment): better physical and chemical stability than commercially available BHA | plasma concentration ([2]; 5 min after administration, female rats): 0.080026 µg/mL and 0.165939 µg/mL and 0.077996 µg/mL | plasma concentration ([2]; 5 min after administration, male rats): 0.159617 µg/mL and 0.125112 µg/mL and 0.147531 µg/mL | plasma concentration ([2]; 30 min, female rats): 0.157878 µg/mL and 0.371466 µg/mL and 0.24087 µg/mL | plasma concentration ([2]; 30 min, male rats): 0.694651 µg/mL and 0.489006 µg/mL and 0.359028 µg/mL | plasma concentration ([2]; 1 h, female rats): 0.504084 µg/mL and 0.60312 µg/mL and 0.643208 µg/mL | plasma concentration ([2]; 1 h, male rats): 0.56098 µg/mL and 0.570039 µg/mL | plasma concentration ([2]; 2 h, female rats): 0.687296 µg/mL and 0.410399 µg/mL and 0.199206 µg/mL | plasma concentration ([2]; 2 h, male rats): 0.267167 µg/mL and 0.267234 µg/mL and 0.312997 µg/mL | plasma concentration ([2]; 4 h, female rats): 0.28384 µg/mL and 0.205532 µg/mL and 0.146191 µg/mL | plasma concentration ([2]; 4 h, male rats): 0.192535 µg/mL and 0.063401 µg/mL and 0.086609 µg/mL | plasma concentration ([2]; 8 h, female rats): 0.078447 µg/mL and 0.042984 µg/mL and 0.1217 µg/mL | plasma concentration ([2]; 8 h, male rats): 0.117919 µg/mL and 0.027328 µg/mL and 0.192532 µg/mL | plasma concentration ([2]; 24 h, BLLOQ = below the detection limit, female rats): BLLOQ | plasma concentration ([2]; 24 h, BLLOQ = below the detection limit, male rats): BLLOQ | concentration at 1 h ([2]; both sexes, SD, rat, plasma, oral, 100 mg/kg, 1 h): 0.881 µg/mL | correlation of maximum plasma concentration and AUC with the administration dose [3]: better correlation with the administration dose | individual differences in plasma concentration [3]: small individual differences in plasma concentration | stability during the preparation process [4]: better stability

COc1ccc(O)c(C(C)(C)C)c1 [2-tert-butyl-4-methoxyphenol]
Appearance ([1]; 0 month): off-white | Content ([1]; 0 month): 98.0% | Related substance ([1]; 0 month): 1.8% | Appearance ([1]; 1 month): light yellowish | Content ([1]; 1 month): 95.1% | Related substance ([1]; 1 month): 3.9% | Appearance ([1]; 2 month): light yellowish + | Content ([1]; 2 month): 92.1% | Related substance ([1]; 2 month): 8.8% | Appearance ([1]; 3 month): light yellowish red | Content ([1]; 3 month): 90.2% | Related substance ([1]; 3 month): 9.3%

COc1cc(C(C)=O)ccc1O [Apocynin]
effect on occurrence of lung cancer [5]: inhibiting the occurrence of lung cancer | effect on differentiation of monocytes into M2 macrophages [6]: inhibit the differentiation of monocytes into M2 macrophages

COc1ccc(O)c(C(C)(C)C)c1 [BHA, 2-tert-butyl-4-methoxyphenol]
effect on occurrence of lung cancer [5]: inhibiting the occurrence of lung cancer | effect on differentiation of monocytes into M2 macrophages [6]: inhibit the differentiation of monocytes into M2 macrophages | anti-tumor effect [7]: anti-tumor proliferation and metastasis effects | half-life [8]: 30 to 60 min | antioxidant capacity relative to 3-tert-butyl-4-methoxyphenol [9]: 2-3 times | recovery from central effect [10, 14]: recovered after half an hour | toxic effect seen [10, 14]: only part of the “hangover”-like central effect could be seen | lethality [10, 15]: half of the mice were lethal | time until toxic reaction symptoms disappeared in the surviving mice [10, 15]: 30 to 60 min | toxic effect after long-term administration ([10]; long-term low-dose administrations in mice for 2 years): no toxic effect | macrophage polarization regulation activity relative to 3-tert-butyl-4-methoxyphenol [11]: 5-100 times | effect on M2 polarization of macrophages [12]: inhibiting the M2 polarization of macrophages | carcinogenic effects [13]: has carcinogenic effects

CC(=O)N[C@@H](CS)C(=O)O [NAC]
effect on occurrence of lung cancer [5]: inhibiting the occurrence of lung cancer | effect on differentiation of monocytes into M2 macrophages [6]: inhibit the differentiation of monocytes into M2 macrophages

CC1(C)CCCC(C)(C)N1[O] [TEMPO]
effect on occurrence of lung cancer [5]: inhibiting the occurrence of lung cancer | effect on differentiation of monocytes into M2 macrophages [6]: inhibit the differentiation of monocytes into M2 macrophages

— patent publication US11655201B2, “Method for preparing 2-tert-butyl-4-methoxyphenol and new crystal form thereof” (BIOMEDICAL ANALYSIS CENTER, ACADEMY OF MILITARY MEDICAL …, priority 2017, dated 2023)
